The text below walks through data of ChEMBL document CHEMBL1201862, “PubChem BioAssay data set” (2004).

SMILES strings stand for the structures.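 Cells were grown in 96-well plates and exposed to each compound for 48 hours at five concentrations; endpoints were interpolated linearly between bracketing concentrations, or set to the highest concentration if not reached. GI50: concentration for 50% inhibition of growth.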 Calls of active or inactive are those of the source. No stated cut-off is given here; in the data, active = GI50 up to about 1.1 µM and inactive = higher.

Test systems include M14; SK-MEL-28; UO-31; SN12C; SF-539; SK-MEL-5; RPMI-8226; COLO 205; OVCAR-5; HCC 2998; LOX IMVI; CAKI-1; Hs-578T; Malme-3M; HT-29; SK-OV-3; MCF7; T47D; HOP-92; K562.
Common to all, as to assay: inhibition of tumour cell growth, NCI panel, 48 h

For `Cc1occc1C(=S)Nc1ccc(Cl)c(C(=O)OC(C(C)C)C(C)C)c1`, the GI50 in the test with M14 was 12.7 µM (inactive); in the test with SK-MEL-28 it was 12.5 µM (inactive); in the test with UO-31, 5 µM (inactive); in the test with SN12C it was 14.9 µM (inactive); in the test with SF-539, 16.4 µM (inactive); in the test with SK-MEL-5, 14.6 µM (inactive). The GI50 was 6.11 µM (inactive) in the test with RPMI-8226; 9.59 µM (inactive) in the test with COLO 205; 22.6 µM (inactive) with OVCAR-5; 9.23 µM (inactive) in the test on HCC 2998; 13 µM (inactive) in the test with LOX IMVI; 17.1 µM (inactive) in the test on CAKI-1. The GI50 is 17.6 µM (inactive) with Hs-578T; 12 µM (inactive) in the test with Malme-3M; 14.1 µM (inactive) in the test with HT-29; 18.4 µM (inactive) in the test on SK-OV-3; 13.1 µM (inactive) in the test with MCF7; 4.49 µM (inactive) in the test with T47D. The GI50 in the test with HOP-92 was 7.82 µM (inactive).

On to `O=C(C#CP(=O)(O)c1ccccc1)c1ccccc1`, for which the GI50 with M14 was > 100 µM (inactive); with SK-MEL-28, > 100 µM (inactive); in the test with UO-31, < 0.01 µM (active); in the test with SN12C, > 100 µM (inactive); in the test with SF-539, > 100 µM (inactive); with SK-MEL-5 it was > 100 µM (inactive). The GI50 with K562, in the test on COLO 205, in the test on OVCAR-5, in the test with HCC 2998, with LOX IMVI and with CAKI-1 was > 100 µM (inactive) in each case. The GI50 with Hs-578T, in the test on Malme-3M, with HT-29, in the test with SK-OV-3, in the test with MCF7 and in the test on T47D was > 100 µM (inactive) each time. Besides, the GI50 in the test on HOP-92 is > 100 µM (inactive).

As to `COc1cc2c(cc1OC)C1C3CCCCC3CCN1CC2` (configuration not stated), the GI50 in the test with SK-MEL-28 was > 100 µM (inactive); with SN12C, 62.7 µM (inactive); in the test on SF-539 it was > 100 µM (inactive); with SK-MEL-5 it was > 100 µM (inactive); in the test on K562 it was > 100 µM (inactive); in the test with COLO 205 it was 67 µM (inactive). In addition, the GI50 in the test on OVCAR-5, with HCC 2998, in the test with LOX IMVI, with CAKI-1, with Hs-578T and in the test on Malme-3M was > 100 µM (inactive) each time. The GI50 is 88.9 µM (inactive) in the test with HT-29; > 100 µM (inactive) with SK-OV-3; 0.36 µM (active) with MCF7; > 100 µM (inactive) in the test with T47D; > 100 µM (inactive) with HOP-92.

Turning to `CCCCCCCCCCCCCCCCCCNc1nc(=O)n(C2CC(O)C(COP(=O)(O)OCC3OC(n4ccc(N)nc4=O)C(O)C3O)O2)cc1F` (configuration not stated), the GI50 with M14 was 9.35 µM (inactive); in the test on SK-MEL-28, > 100 µM (inactive); with UO-31, 24.5 µM (inactive); in the test with SN12C, 27 µM (inactive); with SF-539 it was 32.6 µM (inactive); in the test with SK-MEL-5 it was > 100 µM (inactive). Besides, the GI50 in the test on K562 was > 100 µM (inactive); in the test with RPMI-8226 it was > 100 µM (inactive); in the test with COLO 205, 26.9 µM (inactive); in the test with OVCAR-5, 52.6 µM (inactive); in the test with HCC 2998 it was 11.8 µM (inactive); in the test on LOX IMVI, 10.2 µM (inactive). The GI50 in the test with CAKI-1 is 92.5 µM (inactive); in the test with Hs-578T, > 100 µM (inactive); in the test with Malme-3M it was 24.5 µM (inactive); in the test with HT-29 it was 13.1 µM (inactive); in the test on SK-OV-3 it was 53.6 µM (inactive); in the test on MCF7 it was 6.7 µM (inactive). In addition, the GI50 in the test on T47D was 28.7 µM (inactive); with HOP-92, 31.1 µM (inactive).

With `O=C1CCc2cc3c(cc21)CC1(Cc2cc4c(cc2C1)CCCC4)C3`, the GI50 with M14 is 30.3 µM (inactive); with SK-MEL-28, > 100 µM (inactive); in the test with UO-31 it was > 100 µM (inactive); with SN12C, > 100 µM (inactive); in the test with SF-539 it was > 100 µM (inactive); in the test with SK-MEL-5, 24.6 µM (inactive). Further, the GI50 with K562 is 23.6 µM (inactive); in the test with RPMI-8226 it was > 100 µM (inactive); in the test on COLO 205 it was 33 µM (inactive); in the test with OVCAR-5, > 100 µM (inactive); in the test with HCC 2998 it was 69.8 µM (inactive); with LOX IMVI it was 58.5 µM (inactive). Moreover, the GI50 in the test on Hs-578T is 30.5 µM (inactive); in the test on Malme-3M, 90.6 µM (inactive); in the test on HT-29, 34.8 µM (inactive); in the test with SK-OV-3, 79.4 µM (inactive); in the test with MCF7, 44.5 µM (inactive); with T47D it was 32.1 µM (inactive). Further, the GI50 in the test on HOP-92 is 0.0489 µM (active).

For the compound `COC(=O)c1cc2c(c(C(=O)OC)c1)CCC2`, the GI50 in the test with M14 is > 100 µM (inactive); in the test with SK-MEL-28 it was > 100 µM (inactive); with UO-31 it was 85.7 µM (inactive); with SF-539, > 100 µM (inactive); in the test with SK-MEL-5, 56.1 µM (inactive); in the test with K562 it was 59 µM (inactive). For the same compound, the GI50 with RPMI-8226 is > 100 µM (inactive); in the test on OVCAR-5, > 100 µM (inactive); with HCC 2998 it was > 100 µM (inactive); in the test with LOX IMVI, 82.4 µM (inactive); in the test with CAKI-1 it was 20.7 µM (inactive); in the test on Hs-578T, > 100 µM (inactive). The GI50 in the test on Malme-3M is > 100 µM (inactive); with HT-29 it was 40.6 µM (inactive); in the test on SK-OV-3, > 100 µM (inactive); in the test with MCF7, > 100 µM (inactive); in the test with T47D, 63.5 µM (inactive); in the test on HOP-92 it was 49.9 µM (inactive).

In the case of `O=Cc1cc(O)c(O)c(/C=N/n2c3ccccc3c3ccccc32)c1`, the GI50 with M14 is 6.1 µM (inactive); in the test with SK-MEL-28, 12.9 µM (inactive); in the test on UO-31 it was 5.58 µM (inactive); with SN12C, 4.56 µM (inactive); in the test with SF-539, 6.38 µM (inactive); with K562, 4.11 µM (inactive). In addition, the GI50 in the test on RPMI-8226 is 2.05 µM (inactive); in the test with COLO 205, 10.8 µM (inactive); in the test with OVCAR-5 it was 17.9 µM (inactive); in the test on HCC 2998, 11.7 µM (inactive); in the test on LOX IMVI, 8.49 µM (inactive); in the test on CAKI-1, 16.1 µM (inactive). In addition, the GI50 in the test on Hs-578T is 19.3 µM (inactive); in the test on Malme-3M it was 12.4 µM (inactive); in the test on HT-29 it was 18.7 µM (inactive); in the test with SK-OV-3, 6.55 µM (inactive); in the test on MCF7 it was 0.64 µM (active); in the test on T47D, 5.64 µM (inactive). Further, the GI50 in the test on HOP-92 is 2.72 µM (inactive).

As for `COc1ccc2c3c1OC1C34CCN(C)C(C2)C4=CC(I)C1(OC)OC` (configuration not stated), the GI50 is 14.3 µM (inactive) with M14; 12.1 µM (inactive) in the test with SK-MEL-28; 14.9 µM (inactive) in the test on UO-31; 5.78 µM (inactive) in the test on SN12C; 1.79 µM (inactive) with SF-539; 12 µM (inactive) in the test on SK-MEL-5. Besides, the GI50 in the test on K562 is 2.77 µM (inactive); with RPMI-8226, 2.71 µM (inactive); in the test on COLO 205, 13.9 µM (inactive); in the test with OVCAR-5 it was 18.6 µM (inactive); with HCC 2998, 10.2 µM (inactive); in the test on LOX IMVI, 7.33 µM (inactive). Further, the GI50 with CAKI-1 was 12.9 µM (inactive); in the test on Hs-578T, 37 µM (inactive); in the test on Malme-3M it was 7.21 µM (inactive); with HT-29 it was 7.66 µM (inactive); with SK-OV-3, 15 µM (inactive); in the test on MCF7 it was 5.08 µM (inactive). Further, the GI50 with T47D was 16.3 µM (inactive); with HOP-92, 11.4 µM (inactive).

Consider `Nc1c(C(=O)c2ccccc2)[nH]c(NCc2ccccc2)c1C(=S)Nc1ccccc1`, for which the GI50 in the test with M14, with SK-MEL-28, with UO-31, in the test with SN12C, with SF-539 and in the test on SK-MEL-5 was > 100 µM (inactive) in each case. Further, the GI50 in the test on K562, in the test with COLO 205, in the test on OVCAR-5, with HCC 2998, in the test with LOX IMVI and in the test with CAKI-1 was > 100 µM (inactive) in each case. Moreover, the GI50 with Hs-578T, in the test on Malme-3M, with HT-29, in the test on SK-OV-3, in the test with MCF7 and in the test with T47D was > 100 µM (inactive) throughout. The GI50 with HOP-92 is > 100 µM (inactive).

In the case of `O=C(c1ccccc1)c1c2ccccn2c2cccc[n+]12`, the GI50 is > 100 µM (inactive) in the test with M14; > 100 µM (inactive) in the test on SK-MEL-28; > 100 µM (inactive) in the test on SF-539; 47 µM (inactive) in the test on SK-MEL-5; > 100 µM (inactive) with K562; > 100 µM (inactive) in the test with RPMI-8226. For the same compound, the GI50 with COLO 205 is 20.1 µM (inactive); with OVCAR-5 it was > 100 µM (inactive); in the test on HCC 2998 it was > 100 µM (inactive); with LOX IMVI, > 100 µM (inactive); in the test with CAKI-1, > 100 µM (inactive); in the test on Hs-578T, > 100 µM (inactive). Further, the GI50 in the test with Malme-3M, with HT-29, in the test on SK-OV-3, in the test with MCF7, in the test on T47D and in the test with HOP-92 was > 100 µM (inactive) each time.

For `O=C([O-])Cc1ccccc1.[Na+]` [SODIUM PHENYLACETATE], the GI50 was > 2000 µM (inactive) with M14; 800 µM (inactive) with SK-MEL-28; 929 µM (inactive) in the test with UO-31; 23.9 µM (inactive) in the test on SN12C; > 2000 µM (inactive) with SF-539; 869 µM (inactive) with SK-MEL-5. In addition, the GI50 was 284 µM (inactive) in the test with K562; 413 µM (inactive) with RPMI-8226; 1340 µM (inactive) in the test with COLO 205; > 2000 µM (inactive) in the test on OVCAR-5; 1210 µM (inactive) in the test on HCC 2998; 1160 µM (inactive) in the test on LOX IMVI. The GI50 in the test with Hs-578T was 385 µM (inactive); in the test on Malme-3M, 706 µM (inactive); in the test on HT-29 it was 931 µM (inactive); in the test with SK-OV-3 it was > 2000 µM (inactive); in the test on MCF7 it was > 2000 µM (inactive); in the test on T47D, 774 µM (inactive). Moreover, the GI50 in the test on HOP-92 is 359 µM (inactive).
